Laboratory results from US20080214844A1, “Icaritin and desmethylicaritin as anti-cancer agents” (priority 2007, published 2008).

Tests used:
human colon cancer = assay: Human colon cancer xenograft model; assay type: in vivo
From the text: (§1) ICA was extensively biotransformed and converted to at least three metabolites: Icariside II (molecule weight=514), Icaritin (molecule weight=368), and Desmethylicaritin (molecule weight=354). […] Icaritin and Desmethylicaritin have huge potentials to be developed as novel and broad anti cancer drugs.
FIG. 3. Response of Human Colon tumor to treatment with Icaritin and Desmethyliciarityn.

human lung cancer = assay: Human lung cancer xenograft model; assay type: in vivo
From the text: as §1
FIG. 2. Response of Human Lung tumor to treatment with Icaritin and Desmethyliciarityn.

Widr = assay: MTT cell viability assay, Widr; assay type: cell-based, human; settings: Homo sapiens, 72 h, Colon, 3 days culture
Method: (§2) 26 cancer cell lines were grown in normal growth medium in the presence of different concentrations Icaritin or Desmethylicaritin. After culture for 3 days, the cell viability was then measured by an MTT assay. […] Some EC50s were lower than 10 uM for these two compounds. […] Whereas, normal human mammary gland epithelial cells (MCF10A) were not sensitive to Icaritin and Desmethylicaritin. These cells grew well when treated with these two compounds at a concentration of 50 uM.

G-361 = assay: MTT cell viability assay, G-361; assay type: cell-based, human; settings: Homo sapiens, 72 h, G-361, Skin, 3 days culture
Method: as §2

BT-549 = assay: MTT cell viability assay, BT-549; assay type: cell-based, human; settings: Homo sapiens, 72 h, BT-549, Breast, 3 days culture
Method: as §2

NCI-H23 = assay: MTT cell viability assay, NCI-H23; assay type: cell-based, human; settings: Homo sapiens, 72 h, NCI-H23, Lung, 3 days culture
Method: as §2

A549 = assay: MTT cell viability assay, A549; assay type: cell-based, human; settings: Homo sapiens, 72 h, A549, Lung, 3 days culture
Method: as §2

786-O = assay: MTT cell viability assay, 786-O; assay type: cell-based, human; settings: Homo sapiens, 786-0, 72 h, Kidney, 3 days culture
Method: as §2

[1] = system: LNCaP prostate cancer cells; assay: Lipogenesis: incorporation of 2-14C-labeled acetate into cellular lipids; assay type: cell-based; settings: Homo sapiens, 5 h, 2-14C-acetate incorporation
Method: To investigate the ability of Icaritin and Desmethylicaritin to inhibit lipogenesis, LNCaP prostate cancer cells were treated with different concentrations of Icaritin and Desmethylicaritin for 5 h, and incorporation of 2-^14C-labeled acetate into cellular lipids was quantitated. Both of Icaritin and Desmethylicaritin inhibited lipogenesis by more than 50% at a concentration of 0.5 uM. Higher concentrations further reduced lipogenesis in a dose-dependent way. A further decline was observed after 24 h of exposure.

D145 = assay: MTT cell viability assay, D145; assay type: cell-based, human; settings: Homo sapiens, 72 h, D145, Prostate, 3 days culture
Method: as §2

MCF-10a = assay: MTT cell viability assay, MCF-10a normal breast epithelial cells; assay type: cell-based, human
Method: as §2

CCL-225 = assay: MTT cell viability assay, CCL-225; assay type: cell-based, human; settings: Homo sapiens, 72 h, CCL-225, Colon, 3 days culture
Method: as §2

Raji = assay: MTT cell viability assay, Raji; assay type: cell-based, human; settings: Homo sapiens, 72 h, Lymphoma, 3 days culture
Method: as §2

SK-MEL-5 = assay: MTT cell viability assay, SK-MEL-5; assay type: cell-based, human; settings: Homo sapiens, 72 h, SK-MEL-5, Skin, 3 days culture
Method: as §2

Mid PaCa-2 = assay: MTT cell viability assay, Mid PaCa-2; assay type: cell-based, human; settings: Homo sapiens, 72 h, Mid PaCa-2, Pancreas, 3 days culture
Method: as §2

AU-565 = assay: MTT cell viability assay, AU-565; assay type: cell-based, human; settings: Homo sapiens, AU565, 72 h, AU-565, Breast, 3 days culture
Method: as §2

[2] = system: human micro vessel endothelial cell (HMVECs); assay: HMVEC proliferation assay; assay type: cell-based
Method: Icaritin is a potent inhibitor of angiogenesis. Inhibition of human micro vessel endothelial cell (HMVECs) proliferation by Icaritin was investigated. HMVEC proliferation in response to Icaritin was determined using a modified method from previously described procedures. Briefly, HMVECs fed 1 day before use (with a fresh media exchange to obtain optimal growth conditions) were trypsinized and resuspended at 5×10^4 cells/ml in EBM (Clonetics)+2% FBS+gentamicin. An equivalent number of cells (2.5×10^3) in 50 μl cell suspension was plated nonconfluently onto each well of a 96-well plate and allowed to adhere for 4 h at 37° C. Serial Icaritin dilutions were prepared in this media at 3× concentration, of which 50 μl was added to the 100 μl cell suspension already in the wells, resulting in 150 μl 1× dilutions. The plate was incubated for up to 72 h at 37° C. […] Absorbance was read at 490 nm on an ELISA plate reader with Microplate Manager (Bio-Rad, Richmond, Calif.). Proliferation curves for HMVECs were determined, and measurements were obtained and compared in the log proliferation phase, which was 3 days (t=72 h) for the conditions described. […]

HT29 = assay: MTT cell viability assay, HT29; assay type: cell-based, human; settings: Homo sapiens, HT-29, 72 h, HT29, Colon, 3 days culture
Method: as §2

MCF-7 = assay: MTT cell viability assay, MCF-7; assay type: cell-based, human; settings: Homo sapiens, MCF7, 72 h, MCF-7, Breast, 3 days culture
Method: as §2

estrogen receptor = settings: mediated by the estrogen receptor; cited from earlier work
[3] = system: FAS protein levels in LNCaP cells; assay: Western blot analysis for FAS protein levels; assay type: cell-based, human
Jurkat T cell = assay: MTT cell viability assay, Jurkat T cell; assay type: cell-based, human; settings: Homo sapiens, 72 h, Leukemia, 3 days culture
Method: as §2

MDA-MB-231 = assay: MTT cell viability assay, MDA-MB-231; assay type: cell-based, human; settings: Homo sapiens, 72 h, MDA-MB-231, Breast, 3 days culture
Method: as §2

IC50 (BT-549): 8 µM
IC50 (NCI-H23): 6 µM
IC50 (A549): 10.6 µM
IC50 (786-O): 10.5 µM
IC50 (Raji): 5.4 µM
IC50 (SK-MEL-5): 9.9 µM
IC50 (HT29): 15.3 µM
IC50 (MCF-7): 18.2 µM
IC50 (Jurkat T cell): 5.1 µM
IC50 (MDA-MB-231): 5.3 µM
SMILES: COc1ccc(-c2oc3c(CC=C(C)C)c(O)cc(O)c3c(=O)c2O)cc1 [Icaritin]
human colon cancer cell growth in vivo (human colon cancer): strongly inhibiting
human lung cancer cell growth in vivo (human lung cancer): strongly inhibiting
IC50 (Widr): 10.6 µM
IC50 (G-361): 6.9 µM
inhibition at 0.5 µM [1]: > 50%
IC50 (D145): 9.3 µM
IC50 (MCF-10a; Homo sapiens, 72 h, MCF-10a, Normal breast epithelial cells, 3 days culture, MTT): > 50 µM
sensitivity of normal human mammary gland epithelial cells (MCF10A) (MCF-10a; cells grew well at 50 uM): not sensitive
IC50 (CCL-225): 8.8 µM
IC50 (Mid PaCa-2): 8.1 µM
IC50 (AU-565): 7.9 µM
inhibition of proliferation and inducing cell apoptosis ([2]; 10 uM, HUVECs and HMVECs): significant levels of inhibition
EC50 ([2]; Homo sapiens, HMVEC, 72 h, Cell Titer 96 Aqueous assay, read-out: EC50, inhibition of HMVEC proliferation): 8.7 µM
estrogenic effect (estrogen receptor): week phytoestrogens
FAS protein levels (Western blot) [3]: did not influence
